# Target: T1, XynB2 (Geobacillus stearothermophilus, UniProt Q09LZ0, Y509E)
# T1 construct: recombinant in E. coli C43 from plasmid pJAVI100 (template pJAVI91); semi-purified by heat treatment (45 °C, 30 min) and dialysis; all rows Y509E
# Experiment: p-nitrophenol release at […] nm, hyperbolic fit
# Format: biochemical
# Conditions: free semi-purified (heat-treated extract) enzyme; 100 mM citrate phosphate-glycine buffer, pH 6.5, 50 °C
# T1 sequence (Q09LZ0 entry or part of it Y509E): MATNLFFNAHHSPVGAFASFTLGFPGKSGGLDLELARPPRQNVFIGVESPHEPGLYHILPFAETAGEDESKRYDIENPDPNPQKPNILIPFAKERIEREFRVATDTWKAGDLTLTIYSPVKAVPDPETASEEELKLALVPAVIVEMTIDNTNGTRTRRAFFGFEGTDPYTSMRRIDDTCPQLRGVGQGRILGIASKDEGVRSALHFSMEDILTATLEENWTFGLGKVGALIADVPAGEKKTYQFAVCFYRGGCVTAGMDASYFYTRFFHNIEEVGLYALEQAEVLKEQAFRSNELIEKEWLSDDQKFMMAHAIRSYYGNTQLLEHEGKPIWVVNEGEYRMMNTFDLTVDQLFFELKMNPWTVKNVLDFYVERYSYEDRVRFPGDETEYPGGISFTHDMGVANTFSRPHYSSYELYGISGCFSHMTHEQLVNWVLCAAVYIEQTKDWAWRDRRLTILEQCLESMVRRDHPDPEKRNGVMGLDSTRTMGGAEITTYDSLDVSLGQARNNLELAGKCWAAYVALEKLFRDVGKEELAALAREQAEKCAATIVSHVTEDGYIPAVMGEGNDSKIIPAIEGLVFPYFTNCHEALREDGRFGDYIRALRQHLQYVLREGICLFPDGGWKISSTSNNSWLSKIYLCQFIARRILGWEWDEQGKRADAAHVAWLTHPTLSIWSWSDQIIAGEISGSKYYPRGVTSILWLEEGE
smiles,measurement,value
O=[N+]([O-])c1ccc(O[C@@H]2OC[C@@H](O)[C@H](O)[C@H]2O)cc1 [p-nitrophenyl-β-d-xylopyranoside],Km,900 ± 100 µM

# Reference: paper PMC7830863, “Characterization of Cross-Linked Enzyme Aggregates of the Y509E Mutant of a Glycoside Hydrolase Family 52 β-xylosidase from G. stearothermophilus” (Molecules, 2021)
